From US8236826B2, “Diarylether derivatives as antitumor agents” (Otsuka Pharmaceutical Co., Ltd., priority 2005, dated 2012)
Counter-ions that a name gives are not always drawn.

Row | SMILES | melting point
1 | Cc1cc(N(C)CC(=O)N2CCN(Cc3ccoc3)CC2)ccc1Oc1ccc(NC(=O)c2ccc(C(F)(F)F)cc2)cn1 (as salt: hydrochloride) [Example 792] | 158.5 to 161 °C
2 | O=C(Nc1ccc(Oc2ccc(C3CCN(C(=O)CN4CCOCC4)CC3)cc2)cc1)c1ccc(Cl)c(Cl)c1 (as salt: hydrochloride) [Example 2571] | 146 to 150 °C
3 | CCN(CC(=O)N1CCN(Cc2ccccc2)CC1)c1ccc(Oc2ccc(NC(=O)c3ccc(C(F)(F)F)cc3)cn2)c(C)c1 (as salt: maleate) [Example 1513] | 165 to 167 °C
4 | O=C(Nc1ccc(Oc2ccc(C(=O)N3CCOCC3)cc2)cc1)c1ccc(Cl)c(Cl)c1 [Example 10] | 189 to 192 °C
5 | O=C(Nc1ccc(Oc2ccc(C(=O)N3CCOCC3)cc2)c(F)c1)c1ccc(Cl)c(Cl)c1 [Example 11] | 203 to 204 °C
6 | O=C(Nc1ccc(Oc2ccc(C(=O)N3CCN(c4ccccn4)CC3)cc2)nc1)c1ccc(C(F)(F)F)cc1 [Example 176] | 222 to 224 °C
7 | CC(C)(C)OC(=O)N1CCN(C(=O)CCc2ccc(Oc3ccc(NC(=O)c4ccc(Cl)c(Cl)c4)cc3F)cc2)CC1 [Example 464] | 155 to 157 °C
8 | O=C(Nc1ccc(Oc2ccc(CCC(=O)N3CCN(c4cccnc4)CC3)cc2)cc1)c1ccc(Cl)c(Cl)c1 [Example 466] | 153 to 155 °C
9 | O=C(Nc1ccc(Oc2ccc(CCC(=O)N3CCN(c4cccnc4)CC3)cc2)c(F)c1)c1ccc(Cl)c(Cl)c1 [Example 467] | 183 to 185 °C
10 | CC(=O)N(CC(=O)N1CCN(Cc2ccccc2)CC1)c1ccc(Oc2ccc(NC(=O)c3ccc(C(F)(F)F)cc3)cn2)cc1 [Example 771] | 161 to 162 °C
11 | CCN(CC(=O)N1CCN(Cc2ccc3c(c2)OCO3)CC1)c1ccc(Oc2ccc(NC(=O)c3ccc(C(F)(F)F)cc3)cn2)cc1 [Example 774] | 178 to 180 °C
12 | CCN(CC(=O)N1CCN(Cc2ccoc2)CC1)c1ccc(Oc2ccc(NC(=O)c3ccc(C(F)(F)F)cc3)cn2)c(OC)c1 [Example 784] | 174 to 176 °C
13 | COc1cc(N(C)CC(=O)N2CCN(Cc3ccoc3)CC2)ccc1Oc1ccc(NC(=O)c2ccc(C(F)(F)F)cc2)cn1 [Example 785] | 160 to 164 °C
14 | O=C(Nc1ccc(Oc2ccc(N3CCN(Cc4ccccc4)C3=O)cc2)nc1)c1ccc(C(F)(F)F)cc1 [Example 1181] | 203 to 204 °C
15 | O=C(Nc1ccc(Oc2ccc(N3CCN(Cc4ccccc4)C3=O)cc2)nc1)c1ccc(Cl)c(Cl)c1 [Example 1182] | 186 to 187 °C
16 | Cc1cc(N2CCCN(Cc3ccc4c(c3)OCO4)C2=O)ccc1Oc1ccc(NC(=O)c2ccc(C(F)(F)F)cc2)cn1 [Example 1183] | 165 to 166 °C
17 | Cc1cc(N2CCCN(Cc3ccc4c(c3)OCO4)C2=O)ccc1Oc1ccc(NC(=O)c2ccc(Cl)c(Cl)c2)cn1 [Example 1184] | 122 to 124 °C
18 | COc1ccc(CN2CCCN(c3ccc(Oc4ccc(NC(=O)c5ccc(C(F)(F)F)cc5)cn4)c(C)c3)C2=O)cc1OC [Example 1185] | 155 to 157 °C
19 | Cc1cc(N2CCCN(CC(=O)N3CCN(Cc4ccc5c(c4)OCO5)CC3)C2=O)ccc1Oc1ccc(NC(=O)c2ccc(C(F)(F)F)cc2)cn1 [Example 1186] | 182 to 183.5 °C
20 | COc1ccc(CN2CCCN(c3ccc(Oc4ccc(NC(=O)c5ccc(Cl)c(Cl)c5)cn4)c(C)c3)C2=O)cc1OC [Example 1187] | 117 to 118 °C
21 | CCOC(=O)c1ccc(N2CCCN(c3ccc(Oc4ccc(NC(=O)c5ccc(C(F)(F)F)cc5)cn4)c(C)c3)C2=O)cc1 [Example 1188] | 160 to 161 °C
22 | Cc1cc(N2CCN(Cc3ccc4c(c3)OCO4)C2=O)ccc1Oc1ccc(NC(=O)c2ccc(C(F)(F)F)cc2)cn1 [Example 1504, N-{6-[2-methyl-4-(2-oxo-3-piperonylimidazolidin-1-yl)phenoxy]pyridin-3-yl}-4-trifluoromethylbenzamide] | 188 to 189 °C
23 | Cc1cc(N(C)CC(=O)N2CCN(Cc3ccccc3)CC2)ccc1Oc1ccc(NC(=O)c2ccc(C(F)(F)F)cc2)cn1 [Example 1515] | 110 to 111 °C
24 | O=C(Nc1ccc(Oc2ccc(N3CCN(S(=O)(=O)c4ccccc4)CC3)cc2)cc1)c1ccc(Cl)c(Cl)c1 [Example 2031, N-{4-[4-(4-benzenesulfonylpiperazin-1-yl)phenoxy]phenyl}-3,4-dichlorobenzamide] | 191 to 192 °C
25 | O=C(Nc1ccc(Oc2ccc(N3CCN(C(=O)COc4ccccc4)CC3)cc2)cc1)c1ccc(Cl)c(Cl)c1 [Example 2052] | 171 to 173 °C

Other lines, results leading:

Row | melting point | SMILES
26 | 183 to 185 °C (dec.) | Cc1cc(N(C)CC(=O)N2CCN(Cc3ccc4c(c3)OCO4)CC2)ccc1Oc1ccc(NC(=O)c2ccc(Cl)c(Cl)c2)cn1 (as salt: hydrochloride) [Example 1512]
27 | 116.5 to 118 °C | Cc1cc(N(C)CC(=O)N2CCN(Cc3ccoc3)CC2)ccc1Oc1ccc(NC(=O)c2ccc(Cl)c(Cl)c2)cn1 [Example 718]
28 | 216 to 217 °C | CC(=O)N(CC(=O)N1CCN(Cc2ccc3c(c2)OCO3)CC1)c1ccc(Oc2ccc(NC(=O)c3ccc(Cl)c(Cl)c3)cn2)c(C)c1 [Example 725]
29 | 149 to 151 °C | CCN(CC(=O)N1CCN(Cc2ccc3c(c2)OCO3)CC1)c1ccc(Oc2ccc(NC(=O)c3ccc(Cl)c(Cl)c3)cn2)c(F)c1 [Example 728]
30 | 199 to 201 °C | CN(CC(=O)N1CCN(Cc2ccc3c(c2)OCO3)CC1)c1ccc(Oc2ccc(NC(=O)c3ccc(Cl)c(Cl)c3)cn2)c(F)c1 [Example 729]
31 | 233 to 235 °C | CC(=O)N(CC(=O)N1CCN(Cc2ccc3c(c2)OCO3)CC1)c1ccc(Oc2ccc(NC(=O)c3ccc(Cl)c(Cl)c3)cn2)c(F)c1 [Example 730]
32 | 170 to 172 °C | CCN(CC(=O)N1CCN(Cc2ccc3c(c2)OCO3)CC1)c1ccc(Oc2ccc(NC(=O)c3ccc(C(F)(F)F)cc3)cn2)c(F)c1 [Example 775]
33 | 220 to 221 °C | CN(CC(=O)N1CCN(Cc2ccc3c(c2)OCO3)CC1)c1ccc(Oc2ccc(NC(=O)c3ccc(C(F)(F)F)cc3)cn2)c(F)c1 [Example 776]
34 | 224.5 to 226 °C | Br.CN(CC(=O)N1CCN(Cc2ccc3c(c2)OCO3)CC1)c1cc(F)c(Oc2ccc(C(=O)Nc3ccc(C(F)(F)F)cc3)cn2)cc1F [Example 1037, 6-(4-{[2-(4-Piperonylpiperazin-1-yl)-2-oxoethyl]methylamino}-2,5-difluorophenoxy)-N-(4-trifluoromethylphenyl)nicotinamide hydrobromide]
35 | 102 to 105 °C | CCN(CC(=O)N1CCN(Cc2ccccc2)CC1)c1ccc(Oc2ccc(NC(=O)c3ccc(Cl)c(Cl)c3)cn2)c(C)c1 [Example 1514]
36 | 111 to 113 °C | Cc1cc(N(C)CC(=O)N2CCN(Cc3ccccc3)CC2)ccc1Oc1ccc(NC(=O)c2ccc(Cl)c(Cl)c2)cn1 [Example 1516]
37 | 185.6 to 187 °C | CN(CC(=O)N1CCN(Cc2ccc3c(c2)OCO3)CC1)c1ccc(Oc2ccc(NS(=O)(=O)c3ccc(Cl)c(Cl)c3)cn2)c(F)c1 [Example 1615, 3,4-dichloro-N-[6-(2-fluoro-4-{methyl[2-oxo-2-(4-piperonylpiperazin-1-yl)ethyl]amino}phenoxy)pyridin-3-yl]benzenesulfonamide]
